Assay [1] has as its target T1, ALDH1B1 (Homo sapiens, UniProt P30837).
T1 sequence (P30837 18-517): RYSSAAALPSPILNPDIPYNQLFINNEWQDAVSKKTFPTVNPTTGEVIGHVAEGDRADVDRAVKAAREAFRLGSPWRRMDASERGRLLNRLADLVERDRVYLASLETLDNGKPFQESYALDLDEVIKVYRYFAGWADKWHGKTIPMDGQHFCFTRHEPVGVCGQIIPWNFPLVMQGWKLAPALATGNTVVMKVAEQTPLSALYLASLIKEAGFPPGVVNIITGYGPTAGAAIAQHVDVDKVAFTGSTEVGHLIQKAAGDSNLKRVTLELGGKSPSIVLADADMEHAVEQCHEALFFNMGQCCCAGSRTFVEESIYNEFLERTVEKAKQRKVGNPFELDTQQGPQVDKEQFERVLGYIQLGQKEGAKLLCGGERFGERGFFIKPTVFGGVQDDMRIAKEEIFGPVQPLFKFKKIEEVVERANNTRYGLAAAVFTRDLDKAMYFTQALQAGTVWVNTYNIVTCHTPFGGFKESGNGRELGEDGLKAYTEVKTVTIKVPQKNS
As to the kind of experiment: ALDH1B1 enzyme kinetics assay (NADH fluorescence, acetaldehyde substrate). The note with it: for ALDH1B1 inhibition / isoform selectivity (in words): enzyme kinetics assays against ALDH isoforms. On the set-up: made in house; host or cells: E. coli BL21 (optionally co-expressed with GroEL/GroES). It counts as biochemical. As to the method: Cloning, expression, and purification of human recombinant ALDH1A1, ALDH1A3, ALDH2, ALDH3A1, ALDH3A2, ALDH4A1, ALDH5A1 and ALDH7A1 isozymes were conducted as described previously (Chen, C. H. et al. (2015) Proc. Natl. Acad. Sci. U.S.A. 112, 3074-3079). Human ALDH1A2 (Origene, SC109995) and ALDH1B1 (T. Hurley, Indiana University) plasmids were cloned into the pET-15b expression vector (Novagen, 69661-3) containing an N-terminal hexahistidine tag. The mitochondria-targeting sequence of ALDH1B1 was also removed. For protein expression without chaperones, the pET-15b based plasmids were transformed into competent BL21 E. coli cells, which were subsequently grown in 1 L of Luria-Bertani medium containing 100 μg/mL ampicillin at 37° C. Once the OD600 value reached 0.6, the culture was transferred to 16° C. and 0.5 mM isopropyl β-d-1-thiogalactopyranoside was introduced to induce protein expression overnight. The bacteria were then pelleted by centrifugation (3000×g, 4° C. for 30 rain) and harvested. 40 mL BugBuster Master Mix buffer (MilliporeSigrna) containing a protease inhibitor cocktail (cOmplete; Roche) was added, and the cells were lysed by mechanically rolling the suspension at room temperature for 25 min. The lysate was centrifuged (16000×g, 4° C. for 30 min), and the soluble fraction was collected and mixed with 2 mL of Ni-NTA Superflow resin (Qiagen). After the mixture was avowed to rock at 4° C. for 1 h, it was used to create a 10-mL gravity column, which was sequentially treated with 40 mL of wash buffer 1 (20 mM sodium phosphate, 500 mM NaCl, 1 mM DTT, 20 mM imidazole, 5% glycerol, pH 7.4) and 25 mL of wash buffer 2 (20 mM sodium phosphate, 500 mM NaCl, 1 mM DTT, 40 mM imidazole, 5% glycerol, pH 7.4). The hexahistidine-tagged protein was then recovered by treated the column with 5 mL elution buffer (20 mM sodium phosphate, 500 mM NaCl, 1 mM DTT, 400 mM imidazole, 5% glycerol, pH 7.4) and collecting 500-μL fractions. The protein concentration for each fraction was measured (500 μL elution volume was collected as one fraction and was immediately mixed with 500 μL glycerol. The protein concentration for each fraction was measured (600 nm Protein Assay Reagent; Thermo Fisher Scientific), and protein-containing fractions were diluted with an equal volume of glycerol and stored at −80° C. Samples from each step were also collected for SDS-PAGE gel analysis. For ALDH1B1 protein co-expression with chaperones, pET-15b-ALDH1B1 and GroEL/GroES (Addgene, plasmid pBB541) plasmids were co-transformed into competent BL21 E. coli cells, which were subsequently grown in 1 L of Luria-Bertani medium containing 100 μg/mL ampicillin and 50 μg/mL spectinomycin at 37° C. The hexahistidine-tagged ALDH1B1 protein was then expressed and purified as described above.
To evaluate compound activities against ALDH isoforms, reaction mixtures consisting of enzyme assay buffer (100 mM sodium phosphate, 1 mM MgCl2, pH 8.0) and 0.1% DMSO, 1 mM β-mercaptoethanol, 1 mM NAD^+, and the bacterially expressed protein were prepared in white opaque 96-well assay plates (100 μL/well, flat-bottom and non-treated; Corning Costar). 5 μg/mL ALDH enzyme was used for single-dose (1, 10, 50 μM) compound test, and 1 μg/mL ALDH enzyme was used for IC50s determination. Acetaldehyde was then added to each well to achieve an initial substrate concentration of 1 mM, and the resulting enzymatic activity was measured based on NADH fluorescence. The fluorescence signal was read over the course of 10 min on a SpectraMax M2e microplate reader (340-nm excitation and 460-nm emission; Molecular Devices) operated by SoftMax Pro software. Compound activities were normalized to a DMSO control, and dose-response inhibition curves were fitted with four-parameter non-linear regression using Prism software. […]

Assay [2] deals with SW480 cells. As to the kind of experiment: Seahorse oxygen-consumption-rate assay (SW480). It counts as cell-based. To be noted: Homo sapiens. The protocol: SW480 cells were seeded into a XF96 microplate (Agilent) at a density of 2×10^4 cells/well and cultured for 24 h. The cells were then incubated for 1 h at 37° C. in a non-CO2 incubator, and the plate was then loaded into a 96-well Seahorse XF analyzer (Agilent) and sequentially injected with the indicated compounds, 1 μM oligomycin A, 1 μM FCCP, or 0.5 μM rotenone/antimycin according to the Agilent Mito Stress protocol. The oxygen consumption rates (OCRs, pmol/min) for each well were measured every 5 min for a 15-min period. Basal OCR values was normalized as 100% for data analyses.

Where [3] appears, read: 1 μg/mL enzyme, 1 mM acetaldehyde, 1 mM NAD+, read-out: ALDH1B1(in vitro) IC50.

“Also recorded” adds a separate entry of the source. Like-named read-outs stand apart in the source and are kept apart here.

On to `COc1ccccc1C1=CN(c2ccc(-c3ccccc3)cc2)C2=NCCCCN12` [HPI-273], for which the half-maximal inhibitory concentration (IC50) (commonly the concentration that gives 50% inhibition) in assay [1] (setting [3]) stood at 47 nM.
With `COc1ccccc1-n1cc(-c2ccc(-c3ccccc3)cc2)[n+]2c1CCCCC2` [Imidazolium 2], the IC50 turned out to be 540 nM in assay [2]; 42 nM in assay [1] (setting [3]); 57 nM in assay [1] (FIG. 2, panel B, read-out: ALDH1B1 IC50 (dose-response experiments, text)). Moreover, the “activity against other ALDH1 enzymes relative to ALDH1B1” value in assay [1] (dose-response, ALDH1A1, ALDH1A3, ALDH1B1) is on record as “over an order of magnitude weaker activity against other ALDH1 enzymes”. The “ALDH1B1 inhibition / isoform selectivity (in words)” value in assay [1] was “most potent”. In addition, the “mode of ALDH1B1 inhibition with respect to NAD+” value in assay [1] (varying NAD+, Lineweaver-Burk) is recorded as “uncompetitive”. In assay [1] (varying acetaldehyde, Lineweaver-Burk), the “mode of ALDH1B1 inhibition with respect to acetaldehyde” value is on record as “non-competitive”.
On to `COc1ccccc1-c1ccc(-c2cn(-c3ccccc3OC)c3[n+]2CCCCC3)cc1.[Br-]` [Imidazolium 8], for which the IC50 in assay [2] came to 340 nM; in assay [1] (setting [3]), 47 nM. Also, in assay [1] (dose-response, FIG. 15 panel d), the “potency against ALDH1B1 relative to imidazolium 2 (and 8)” value is listed as “comparable potencies”. Besides, the “ALDH1B1 inhibition / isoform selectivity (in words)” value in assay [1] is on record as “ALDH1B1-specific inhibitors; also recorded: enhanced specificity for ALDH1B1 in comparison to imidazolium 2”.
Regarding `COc1ccccc1C1=CN(c2ccc(-c3ccccc3)cc2)C2=NCCCN12` [STL5-T-0002], the half-maximal inhibitory concentration (IC50) in assay [1] (setting [3]) came to 120 nM.
Turning to `COc1ccccc1-n1cc(-c2ccccn2)[n+]2c1CCCCC2` [Compound 63], in assay [1], the “ALDH1B1 inhibition / isoform selectivity (in words)” value was “inactive against ALDH1B1”.

Source of the values: patent publication US12570661B2, “Isoform-specific aldehyde dehydrogenase inhibitors” (The Board of Trustees of the Leland Stanford Junior …, priority 2020, dated 2026).
